Results reported in patent US20050244413A1, “Compositions and methods for treating cancer using cytotoxic CD44 antibody immunoconjugates and chemotherapeutic agents” (priority 2002, published 2005).
Several values for one entry are separate records, joined by “and”; a condition that tells them apart may be missing. Equal values may be shown once. Read-outs that look alike come from different tables or passages of the source.

What was measured:
[1] = Tolerability in FaDu combination experiments (body weight); format: in vivo, mouse
Procedure: (§1) Tumor sizes and body weights were recorded 2-3 times per week. Tumor sizes were measured with a calliper (length and width) and the volume was calculated according to the following formula: volume (length)×(width)^2×([…]). The tolerability of the treatment was monitored by measuring mouse weight during the whole observation period. […] For calculation of the mean tumor volumes per group, the last values of tumor size for individual animals were carried forward in case that these animals had to be sacrificed due to large tumor burden before the whole group was terminated. In addition to the absolute tumor volume in mm^3, the relative tumor volumes (RTV) were calculated as follows: […]
(§2) In addition, for some experiments, the mean time for tumors to reach 8 times (T8T) their initial sizes were also calculated. The growth delay factor (GDF8) was then calculated accordingly. Percentages of mean relative tumor volumes of treated versus control groups (T/C) were calculated on the days indicated. For statistical evaluation of combination therapies exact Wilcoxon tests were used. Tolerability was assessed by monitoring body weight changes.

[2] = system: FaDuDD tumors; assay: BIWI 1 combination with cisplatin in nude mice xenografted with FaDuDD tumors; format: in vivo, mouse; conditions: cisplatin 4 mg/kg i.v. q7dx4
Procedure: (§3) The antibody solution was injected into the tail vein with an injection volume of 200 μl for a 25 g mouse. In the control groups without BIWI 1 treatment animals were injected i.v. with PBS. […] The solution was injected into the tail vein with an injection volume of 200 μl for a 25 g mouse. […] The solution was injected into the tail vein with an injection volume of 200 μl for a 25 g mouse.
(§4) Tumor sizes and body weights were recorded 2-3 times per week. Tumor sizes were measured with a calliper (length and width) and the volume was calculated according to the following formula: volume (length)×(width)^2×([…]). The tolerability of the treatment was monitored by measuring mouse weight during the whole observation period. […] For calculation of the mean tumor volumes per group, the last values of tumor size for individual animals were carried forward in case that these animals had to be sacrificed due to large tumor burden before the whole group was terminated. In addition to the absolute tumor volume in mm^3, the relative tumor volumes (RTV) were calculated as follows:
(§5) RTV=(tumor volume at day x)/(tumor volume at start of treatment)×100 For the evaluation of treatment efficacy the following parameters were calculated: • T/C (%)=(mean RTV of treated group)/(mean RTV of control group)×100 • T4T (tumor quadrupling time)=time until the mean RTV reaches 400% • GDF4 (growth delay factor)=T4T treated/T4T control.
as §2
A different set of experiments was done with cisplatin. In a pilot experiment, a dose of 4 mg/kg cisplatin administered i.v. four times in weekly intervals was determined to be non-curative in this model, and also represents the maximum tolerated dose in the mouse strain used. This dose of cisplatin was combined with BIWI 1 at the non-curative doses of 200 μg/kg DM1 and 300 Ag/kg DM1 already used in the previous experiment. […] In the latter combination group 2/8 complete tumor regressions could be observed. […] Treatment was well tolerated in all groups.

[3] = system: cells; conditions: free DM1, literature background; cited from earlier work
[4] = system: MDA-MB-453 tumors
Procedure: Experiments were performed using nude mice xenografted subcutaneously with the human breast carcinoma cell line MDA-MBA53. […] The efficacy of these combinations was compared to those of the respective monotherapies by i) analysing the tumor volumes over time and ii) by determining the time for tumors to reach a certain size (tumor growth delay).
The dilutions were prepared freshly for each application or stored at +4° C. during the whole treatment period. […] 200 μl of solutions with different concentrations were injected into the tail vein. Docetaxel (Taxotere®, Aventis, 10 mg/ml) was diluted in 0.9% NaCl. 200 μl of solutions with different concentrations were injected into the tail vein.
Briefly, 1×10^7 MDA-MB-453 cells (ATCC No. HTB-131) were injected into the mammary fat pad of female NMRI nu/nu mice. After reaching a volume of approximately 1000 mm^3 tumors were excised, cut into 4×4 mm pieces and passaged further subcutaneously. Tumor fragments were cryoconserved in 90% RPMI 1640/10% dimethylsulfoxide (slow freezing process down to −80° C., storage in liquid nitrogen). For further passaging, frozen tumor fragments were thawed, washed 3 times in PBS and implanted subcutaneously into the right and left flanks of a 4-5 female NMRI nu/nu mice. Tumors of these mice were then used to prepare the animals for a therapy experiment. Tumors were excised with a size of approximately 10 mm in diameter, cut into 2×2 mm pieces and implanted subcutaneously into the right flank of 6-8 week old female NMRI nu/nu mice. Approximately twice as many animals as needed for the experiment were prepared. When tumors reached a size of 5-10 mm in diameter (10-14 days after implantation), animals were randomised and treatments were started. Animals were obtained from Harlan (Germany) or M&B (Denmark). Tumor sizes and body weights were recorded as described in Section 2.7.

[5] = system: FaDuDD tumors; assay: BIWI 1 combination with docetaxel in nude mice xenografted with FaDuDD tumors; format: in vivo, mouse; conditions: docetaxel 3 mg/kg i.v. q7dx4
Procedure: as §3, §4, §5, §2
To assess the efficacy of BIWI 1 in combination with the taxane docetaxel (Taxotere), non-curative doses of both drugs were tested as single agents or in combination in nude mice xenografted with FADuDD tumors. In pilot experiments a dose of 3 mg/kg docetaxel (q7dx4) was determined to be non-curative in this model. BIWI 1 was used at the non-curative dose of 200 μg/kg DM 1 and at a somewhat higher dose (300 μg/kg DM1).
The effect was somewhat more pronounced in the two BIWI 1 monotherapy treatment groups with T/C 41-30% and GDF4: 2.8-4.4. Complete tumor regression could be observed in 1/8 cases with the higher BIWI 1 dose. […] Treatment was well tolerated in all groups, except for a slight unexplained weight loss (approx. −5%) in the docetaxel monotherapy group.

[6] = Tolerability in MDA-MB-453 combination experiments (body weight); format: in vivo, mouse; conditions: doxorubicin 6 mg/kg monotherapy group; combination group with BIWI 1 75 μg/kg DM1; 6 animals per group
Procedure: as §1, §2

[7] = system: MDA-MB-453 tumors; assay: BIWI 1 combination with doxorubicin in nude mice xenografted with MDA-MB-453 tumors; format: in vivo, mouse; conditions: doxorubicin 6 mg/kg i.v. q7dx4
Procedure: Similar experiments as outlined under Section 2.6 were undertaken in a human breast carcinoma xenograft model. Experiments were performed using nude mice xenografted subcutaneously with the human breast carcinoma cell line MDA-MBA53. […] The efficacy of these combinations was compared to those of the respective monotherapies by i) analysing the tumor volumes over time and ii) by determining the time for tumors to reach a certain size (tumor growth delay).
The dilutions were prepared freshly for each application or stored at +4° C. during the whole treatment period. […] Doxorubicin (Doxorubicin “Ebewe”®, 2 mg/ml) was diluted in PBS. 200 μl of solutions with different concentrations were injected into the tail vein. Docetaxel (Taxotere®, Aventis, 10 mg/ml) was diluted in 0.9% NaCl. 200 μl of solutions with different concentrations were injected into the tail vein.
The xenograft model was handled slightly different as outlined under Section 2.1. Briefly, 1×10^7 MDA-MB-453 cells (ATCC No. HTB-131) were injected into the mammary fat pad of female NMRI nu/nu mice. After reaching a volume of approximately 1000 mm^3 tumors were excised, cut into 4×4 mm pieces and passaged further subcutaneously. Tumor fragments were cryoconserved in 90% RPMI 1640/10% dimethylsulfoxide (slow freezing process down to −80° C., storage in liquid nitrogen). For further passaging, frozen tumor fragments were thawed, washed 3 times in PBS and implanted subcutaneously into the right and left flanks of a 4-5 female NMRI nu/nu mice. Tumors of these mice were then used to prepare the animals for a therapy experiment. Tumors were excised with a size of approximately 10 mm in diameter, cut into 2×2 mm pieces and implanted subcutaneously into the right flank of 6-8 week old female NMRI nu/nu mice. Approximately twice as many animals as needed for the experiment were prepared. When tumors reached a size of 5-10 mm in diameter (10-14 days after implantation), animals were randomised and treatments were started. Animals were obtained from Harlan (Germany) or M&B (Denmark). Tumor sizes and body weights were recorded as described in Section 2.7.

[8] = system: breast carcinoma xenografts; assay: BIWI 1 (five daily doses) combination with paclitaxel in human breast carcinoma xenograft model; format: in vivo, mouse
Procedure: BIWI was given i.v. into the tail vein at doses of 50 μg DM1/kg/day or 100 μg DM1/kg/day for five consecutive days. Paclitaxel (Taxol®) was given i.v. at 20 or 10 mg/kg, doxorubicin (Adriamycin®) at 6 or 4 mg/kg only on the first day of the treatment period, in each case 4 hours after BIWI 1 treatment. In mice bearing breast carcinoma xenografts with a volume of approximately 100 mm3.

[9] = system: FaDu tumors; assay: BIWI 1 combination therapy with paclitaxel in the FaDu xenograft model; format: in vivo, mouse; conditions: or both
Procedure: (§6) In vivo anti-tumor efficacy of BIWI 1 was tested in three nude mouse xenograft models applying antigen-positive human tumors: A431 (ATCC # CRL 1555; epidermoid carcinoma of the vulva), FaDu (ATCC # HTB 43; squamous cell carcinoma of the pharynx), and MDA-MB 453 (ATCC # HTB-131; breast carcinoma). The cells were received from ATCC and cultured in RPMI1640 medium containing 10% fetal calf serum and supplements. 1×10^6 tumors cells were transplanted subcutaneously into the right flank of 6 week old female NMRI-nu/nu mice. Tumor growth was monitored by measuring tumor size. A tumor response was rated as complete response when the tumor completely disappeared at any time after start of treatment. The response was rated as partial response when the tumor volume decreased after treatment but thereafter started regrowing. The tolerability of the treatment was monitored by measuring mouse weight during the observation period.
Mice were randomised into the following treatment groups (treatment/initial mean tumor volume/tumor volume range/number of mice): • Group 1: Control (PBS)/197 mm^3/65-402 mm^3/8 mice • Group 2: Paclitaxel/182 mm^3 /65%-302 mm^3/8 mice • Group 3: BIWI 1/208 mm^3 /65-382 mm^3/8 mice • Group 4: BIWI 1+paclitaxel/159 mm^3 /79-335 mm^3 /7 mice
Treatment consisted either of five i.v. injections of BIWI 1 (7 mg/kg corresponding to 100 μg/kg DM1) at day 1, 3, 5, 8, 10, or of six i.p. injections of paclitaxel (10 mg/kg) at day 2, 4, 6, 9, 11, 13, respectively, or a combination thereof. Control animals were treated with PBS.
One tumor completely dissappeared during treatment and the animal remained tumor free until the end of the observation period.

[10] = system: A431 tumors; assay: BIWI 1 monotherapy in A431 xenografted nude mice; format: in vivo, mouse; conditions: 21 mg/kg/d control antibody i.v., five consecutive days
Procedure: as §6
Mice were randomised into the following treatment groups (treatment/initial mean tumor volume/tumor volume range/number of mice): • Group 1: Control (PBS)/185±217 mm^3/19-424 mm^3/5 mice. • Group 2: BIWA 4 (21 mg/kg/d)/133±115 mm^3/42-302 mm^3/5 mice. • Group 3: BIWI 1 (2.1 mg/kg/d)/107±63 mm^3/42-205 mm^3′/5 mice. • Group 4: BIWI 1 (7 mg/kg/d)/132±73 mm^3/42-205 mm^3/5 mice. • Group 5: BIWI 1 (21 mg/kg/d)/107±[…]/42-205 mm^3/5 mice.
(§7) Groups of 5 mice were treated with 2.1 mg/kg/d BIWI 1, 7 mg/kg/d BIWI 1, 21 mg/kg/d BIWI 1, and 21 mg/kg/d control antibody, respectively. Treatment consisted of i.v. injections of BIWI 1 given on five consecutive days, starting at day 1.

[11] = system: FaDu tumors; assay: BIWI 1 monotherapy in FaDu xenografted nude mice; format: in vivo, mouse; conditions: 21 mg/kg/d control antibody i.v., five consecutive days
Procedure: as §6
Mice were randomised into the following treatment groups (treatment/initial mean tumor volume/tumor volume range/number of mice): • Group 1: Control (PBS)/142±82 mm^3/34-268 mm^3 /8 mice. • Group 2: BIWA 4 (21 mg/kg/d)/134±86 mm^3/42-268 mm^3/6 mice. • Group 3: BIWI 1 (2.1 mg/kg/d) 149±96 mm^3/50-268 mm^3/6 mice. • Group 4: BIWI 1 (7 mg/kg/d)/132±97 mm^3 42-268 mm^3/6 mice. • Group 5: BIWI 1 (21 mg/kg/d)/129±74 mm^3/50-231 mm^3/6 mice.
as §7, with “6” for “5”, “1. […] The remaining 2 tumors grew similar to untreated control tumors.” for “1.”

[12] = system: antigen-positive FaDu cells; assay: In vitro binding to FaDu cells (FACS); conditions: 1 hour on ice, FITC-labeled anti-human IgG, read-out: apparent KD
Procedure: The binding of BIWA 4 antibody and BIWI 1 conjugate to antigen-positive FaDu cells was determined. Cells ([…]) were incubated in 96-well plates with varying concentrations of antibody or conjugate on ice for 1 hour. The test article was washed from the plate and FITC-labeled anti-human IgG was added and the incubation on ice was continued in the dark for 1 hour. After washing, the cells were fixed with 1% paraformaldehyde and analyzed on a fluorescence activated cell sorter (FACS).

[13] = BIWI 1 7 mg/kg i.v. x5, paclitaxel 10 mg/kg i.p. x6

N.N.[Cl][Pt][Cl] [Cisplatin, reference compound]
maximum tolerated dose in the mouse strain used ([1]; cisplatin i.v. four times in weekly intervals, pilot experiment): 4 mg/kg
GDF4 [2]: 1.1
T4T [2]: 11.3 days
T/C (d 19) [2]: 100%

COc1cc2cc(c1Cl)N(C)C(=O)C[C@H](OC(=O)[C@H](C)N(C)C(=O)CCS)[C@]1(C)O[C@H]1[C@H](C)[C@@H]1C[C@@](O)(NC(=O)O1)[C@H](OC)/C=C/C=C(\C)C2 [DM1, N^2′-deacetyl-N^2′-(3-mercapto-1-oxopropyl)-Maytansine]
concentration toxic to cells in vitro [3]: about 10^−10 M

CC(=O)O[C@@]12CO[C@@H]1C[C@H](O)[C@@]1(C)C(=O)[C@H](O)C3=C(C)[C@@H](OC(=O)[C@H](O)[C@@H](NC(=O)OC(C)(C)C)c4ccccc4)C[C@@](O)([C@@H](OC(=O)c4ccccc4)[C@H]21)C3(C)C [Docetaxel]
GDF4 ([4]; docetaxel 3 mg/kg i.v. q7dx4): 0.8
T4T ([4]; docetaxel 3 mg/kg i.v. q7dx4): 9.0 days
T/C (d 16) ([4]; docetaxel 3 mg/kg i.v. q7dx4): 102%
GDF4 ([4]; docetaxel 6 mg/kg i.v. q7dx4): 1.3
T4T ([4]; docetaxel 6 mg/kg i.v. q7dx4): 14 days and 13.9 days
T/C (d 16) ([4]; docetaxel 6 mg/kg i.v. q7dx4): 71%
weight loss ([1]; docetaxel monotherapy group 3 mg/kg q7dx4, FaDuDD xenografted mice): approx. −5%
GDF4 [5]: 1.9
T4T [5]: 13.5 days
T/C (d 16) [5]: 56%

COc1cccc2c1C(=O)c1c(O)c3c(c(O)c1C2=O)C[C@@](O)(C(=O)CO)C[C@@H]3O[C@H]1C[C@H](N)[C@H](O)[C@H](C)O1 [Doxorubicin, reference compound]
animals with transient weight loss of more than 12% [6]: two
GDF4 [7]: 1.0
T/C (d13) [7]: 66%

CC(=O)O[C@H]1C(=O)[C@@]2(C)[C@H]([C@H](OC(=O)c3ccccc3)[C@]3(O)C[C@H](OC(=O)[C@H](O)[C@@H](NC(=O)c4ccccc4)c4ccccc4)C(C)=C1C3(C)C)[C@]1(OC(C)=O)CO[C@@H]1C[C@@H]2O [Paclitaxel, reference compound]
T/C (median relative tumor volumes of treated versus control groups) ([8]; paclitaxel monotherapy 10 mg/kg i.v. on first day): 50%
T/C (median relative tumor volumes of treated versus control groups) ([8]; paclitaxel monotherapy 20 mg/kg i.v. on first day): 13%
Initial Tumor Doubling Time ([9]; BIWI 1 7 mg/kg i.v. day 1,3,5,8,10, paclitaxel 10 mg/kg i.p. day 2,4,6,9,11,13): 7 days
Complete Regression [9, 13]: 0/8
Growth Delay Factor [9, 13]: 0.75

BIWA 4
anti-tumor effect [10]: no anti-tumor effect
tumor volume doubling time [10]: approximately 5 days
anti-tumor effect [11]: no anti-tumor effect
tumor volume doubling time [11]: approximately 5 days
Kd [12]: 1 nM
